Test results as given in patent US9102977B2, “Method for analysis of cellular DNA content” (ChemoMetec A/S, priority 2010, dated 2015).

Columns and labels:
[1] = tested on: U2OS cells; settings: known/described effect; cited from earlier work
[2] = tested on: U2OS cells; test: Measurement of drug effects on cell cycle using acid lysis method (DNA content by DAPI image cytometry); format: cell-based, human; settings: drug treatment for 20 hours, Nucleocounter NC-3000 (FIG. 5)
Experimental: U2OS cells were grown in RPMI+10% FCS to approximately 75% confluency in 6-well plates (Nunclon surface, Nunc) and then treated with the following drugs for 20 hours:
After drug treatment each of the wells was washed once with 1 mL of PBS and then incubated with 0.25 ml of lysis buffer (100 mM citrate buffer (pH 2.25), 0.5% Triton X-100, 5 μg/ml DAPI) for 5 minutes at 37° C. Prior to quantitative image cytometry (Nucleocounter NC-3000), the samples were neutralized by adding 0.25 ml stabilization buffer (500 mM citrate, pH 8.3).

CC[C@@]1(O)C(=O)OCc2c1cc1n(c2=O)Cc2cc3ccccc3nc2-1 [Camptothecin]
known effect of the drug on the cell cycle (arrest phase) [1]: 4. Camptothecin, CRT (S-G2 arrest): | cell cycle distribution (DNA content histogram) [2]: accumulation of S-G2 cells

COc1cc([C@@H]2c3cc4c(cc3[C@@H](O[C@@H]3O[C@@H]5CO[C@@H](C)O[C@H]5[C@H](O)[C@H]3O)[C@H]3COC(=O)[C@H]23)OCO4)cc(OC)c1O [Etoposide]
known effect of the drug on the cell cycle (arrest phase) [1]: 5. Etoposide (S-G2 arrest):

NC(=O)NO [Hydroxyurea]
known effect of the drug on the cell cycle (arrest phase) [1]: 3. Hydroxyurea, HU (S arrest):

N[C@@H](Cn1ccc(=O)c(O)c1)C(=O)O [L-mimosine]
known effect of the drug on the cell cycle (arrest phase) [1]: 2. L-mimosine (G1 arrest): | cell cycle distribution (DNA content histogram) [2]: predominantly G1 peak

COC(=O)Nc1nc2ccc(C(=O)c3cccs3)cc2[nH]1 [Nocodazole]
known effect of the drug on the cell cycle (arrest phase) [1]: 1. Nocodazole (G2-M arrest):
